# Where two headings read alike, the source gives them in different places.
# Key:
# [1] = system: BAEC endothelial tubular-like structures formation; assay type: cell-based, bovine; settings: 5 h
# Method: (§1) Cellular suspensions of 5 × 10^4 BAE cells in serum-free DMEM were added to a 96-well plate coated with 50 µL of Matrigel (10.5 mg/mL) in the presence of the indicated treatments for 5 h and photographed with a microscope camera Nikon DS-Ri2 coupled to a Nikon Eclipse Ti microscope (Nikon, Tokyo, Japan). Each concentration was tested in duplicate, and staurosporine 2 µM was used as a routine positive assay control. For the disruption assay, tubular-like structures were formed following the same protocol for the control conditions; then, the indicated concentrations of Solo F–OH were added. After a further incubation time of 90 min, cultures were observed and photographed. Combretastatin-4-phosphate (CA4P) was used as positive control of the disruptor antiangiogenic drug.
# [2] = system: already formed BAEC tubular-like structures; assay: Vascular disruption assay in vitro (already formed tubular-like structures on Matrigel); assay type: cell-based, bovine; settings: 90 min; even at a concentration 10-fold higher than the MIC of the tube formation assay
# Method: as §1
# BAEC invasion = assay: Cell invasion assay on Matrigel-coated transwells; assay type: cell-based, bovine; settings: 20% FBS in lower chamber, 16 h, read-out: Concentration reaching 50% of inhibition of BAEC invasion
# Method: The invasion of endothelial cells was assayed by using 8.0-μm pore size transwell inserts coated with 100 µL of Matrigel 0.12 mg/mL solution. 10^5 BAE cells, in the absence or presence of the indicated concentrations of Solo F–OH, were added to the upper chamber of the transwells in the absence of serum, and the lower chamber was filled with 20% FBS DMEM. After 16 h of incubation, invading cells were fixed in 4% paraformaldehyde and stained with a 1% crystal violet solution in 2% ethanol. Cells were photographed with a microscope camera Nikon DS-Ri2 coupled to a Nikon Eclipse Ti microscope (Nikon, Tokyo, Japan).
# MMP-2 [3] = assay: Gelatin zymography of conditioned media and cell extracts of treated BAEC; assay type: cell-based, bovine; settings: 20 μM, 24 h
# Method: (§2) Zymographies for matrix metalloproteinases MMP-2 and MMP-9 activities were performed in both conditioned media and cellular extracts of endothelial (BAEC) and tumor (HT1080) cell lines as described in Fajardo et al.. Briefly, cells seeded in six-well plates were incubated in serum-free culture medium with 0.1% BSA containing 200 KIU of aprotinin/mL and the correspondent treatment. After 24 h of incubation, conditioned media were collected, and cell lysates were obtained. Duplicates were used to determine the cell number, and samples were normalized for equal loading. In order to detect the gelatinolytic activity of MMP-9 and MMP-2, samples were loaded in non-reducing SDS/PAGE gels containing gelatin (1 mg/mL). After electrophoresis, gels were incubated overnight at 37 °C in a substrate buffer (50 mM of Tris/HCl, pH 7.4, supplemented with 1% Triton X-100, 5 mM CaCl2, and 0.02% Na3N) and stained with Coomassie blue R-250. The bands of gelatinase activity could be detected as non-stained bands in a dark, stained background. The size and intensity of the bands were quantified using Image J software.
# MMP-2 [4] = assay: Gelatin zymography of conditioned media and cell extracts of treated HT1080; assay type: cell-based, human; settings: treated HT1080, 24 h
# Method: as §2
# MMP-9 = assay: as above; assay type: cell-based, human; settings: treated HT1080, 24 h
# Method: as §2
# MMP-2 [5] = target: T1, MMP-2 (Bos taurus, UniProt Q9GLE5); assay: In situ inhibition of MMP-2 gelatinase activity (compound in zymography incubation buffer); assay type: biochemical, bovine; settings: 20 μM in substrate buffer; conditioned media of untreated BAEC
# T1 construct: conditioned media and cellular extracts of endothelial (BAEC) and tumor (HT1080) cell lines; endogenous in cells; host or cells: BAEC (bovine aortic endothelial cells)
# T1 sequence (Q9GLE5 111-661): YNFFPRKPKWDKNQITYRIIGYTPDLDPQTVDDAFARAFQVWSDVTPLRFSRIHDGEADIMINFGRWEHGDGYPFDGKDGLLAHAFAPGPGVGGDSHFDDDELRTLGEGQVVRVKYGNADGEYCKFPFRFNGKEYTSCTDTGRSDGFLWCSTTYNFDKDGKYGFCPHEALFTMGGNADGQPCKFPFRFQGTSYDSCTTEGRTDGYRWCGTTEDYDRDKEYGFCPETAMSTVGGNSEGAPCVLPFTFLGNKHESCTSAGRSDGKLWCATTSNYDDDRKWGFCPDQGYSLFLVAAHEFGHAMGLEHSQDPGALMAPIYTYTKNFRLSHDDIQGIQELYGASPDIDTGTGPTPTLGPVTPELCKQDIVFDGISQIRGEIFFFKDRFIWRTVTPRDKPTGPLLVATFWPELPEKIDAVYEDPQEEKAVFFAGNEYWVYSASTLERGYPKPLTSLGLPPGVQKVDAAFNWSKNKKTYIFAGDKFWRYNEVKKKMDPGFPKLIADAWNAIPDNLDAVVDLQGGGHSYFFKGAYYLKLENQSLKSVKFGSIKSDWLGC
# Method: A variant of this method was used to obtain complementary information about the direct inhibition of the tested compound on MMP-2 gelatinase activity: samples of conditioned media of untreated BAEC were subjected to gelatin zymography and, after electrophoresis, 20 μM of Solo F–OH was added to the substrate buffer. Detection of the degrading bands and quantification were performed as described above.
# [6] = system: subintestinal vessels (SIVs) of zebrafish embryos; assay: FGF-2 induced angiogenesis zebrafish yolk membrane (ZFYM) assay; assay type: in vivo, zebrafish (Danio rerio); settings: FGF-2 2 ng, 24 h
# Akt = assay: Western blot of Akt phosphorylation in serum-induced BAEC; assay type: cell-based, bovine; settings: 20 μM, 1 h treatment of starved BAEC, then 10% FBS for 10 min, two independent experiments
# Method: (§3) BAE cells were starved in serum-free for 16 h. After one-hour treatment with Solo F-OH at 10 and 20 μM in the same conditions, cells were induced with 10% of FBS for 10 min. Protein lysates were obtained in radioimmunoprecipitation assay buffer (RIPA) (50 mM of Tris, pH 7.4, 150 mM of NaCl, 1% Triton X-100, 0.25% sodium deoxycholate, 1 mM of EDTA) containing phosphatase activity inhibitors (30 mM of sodium fluoride, 1 mM of sodium orthovanadate, 30 mM of β-glycerophosphate) and protease activity inhibitors (Complete mini, Roche, Mannheim, Germany). Protein concentration was determined using the Lowry method. Samples were subjected to SDS-PAGE electrophoresis and transferred to nitrocellulose membranes. […] Following one hour of incubation with horseradish peroxidase-conjugated secondary antibodies (MERK; goat anti-rabbit IgG HRP Linked Whole Antibody #NA934V; goat anti-mouse IgG (whole molecule)–Peroxidase antibody #A4416) at room temperature, immunoreactive bands were detected with SuperSignal West Pico Chemiluminescent Substrate (Pierce, Rockford, USA) and quantified by ImageJ software. The phosphorylated/total protein ratios were expressed as the percentage of the ratio in serum-stimulated samples in the absence of Solo F–OH.
# ERK1/2 = assay: Western blot of ERK1/2 phosphorylation in serum-induced BAEC; assay type: cell-based, bovine; settings: 20 μM, 1 h treatment of starved BAEC, then 10% FBS for 10 min, two independent experiments
# Method: as §3
# [7] = system: bovine aortic endothelial cells (BAEC); settings: 72 h of treatment, proliferating conditions; ref [17]; cited from earlier work
# Description: Table 1 Summary of the results obtained in the primary in vitro screening assays for the complete series of synthetic solomonamide precursors. BAEC: bovine aortic endothelial cells, MIC: minimum inhibitory concentration. | column: IC50 ^1 (μM) in BAEC [17]
# CAM of chicken embryos = settings: 48 h; for Positive/Total: methylcellulose disc
# Method: Fertilized chick eggs were incubated horizontally at 38 °C in a humidified incubator, windowed by day 3 of incubation, and processed by day 8. […] Then, methylcellulose discs were implanted onto the CAM, and the eggs were sealed with adhesive tape and returned to the incubator for 48 h. Negative controls were always made with DMSO mixed with the methylcellulose, and aeroplysinin-1 (3 nmol/CAM) was used as a routine positive control of antiangiogenic compound [47]. After the incubation, the CAM was examined under a stereomicroscope and photographed with a Nikon DS-Ri2 camera. The results were analyzed by two different observers, and the assay was scored positive when both of them reported a significant reduction of vessels in the treated area.
# human recombinant VEGFR2 = human recombinant VEGFR2 (Homo sapiens, UniProt P35968); assay: In vitro measure of VEGFR2 TK activity (luminescent VEGFR2 (KDR) Kinase Assay Kit); settings: 20 μM, 45 min at 30 °C; mean ± SD of four independent measures
# human recombinant VEGFR2, sequence (P35968 20-1356): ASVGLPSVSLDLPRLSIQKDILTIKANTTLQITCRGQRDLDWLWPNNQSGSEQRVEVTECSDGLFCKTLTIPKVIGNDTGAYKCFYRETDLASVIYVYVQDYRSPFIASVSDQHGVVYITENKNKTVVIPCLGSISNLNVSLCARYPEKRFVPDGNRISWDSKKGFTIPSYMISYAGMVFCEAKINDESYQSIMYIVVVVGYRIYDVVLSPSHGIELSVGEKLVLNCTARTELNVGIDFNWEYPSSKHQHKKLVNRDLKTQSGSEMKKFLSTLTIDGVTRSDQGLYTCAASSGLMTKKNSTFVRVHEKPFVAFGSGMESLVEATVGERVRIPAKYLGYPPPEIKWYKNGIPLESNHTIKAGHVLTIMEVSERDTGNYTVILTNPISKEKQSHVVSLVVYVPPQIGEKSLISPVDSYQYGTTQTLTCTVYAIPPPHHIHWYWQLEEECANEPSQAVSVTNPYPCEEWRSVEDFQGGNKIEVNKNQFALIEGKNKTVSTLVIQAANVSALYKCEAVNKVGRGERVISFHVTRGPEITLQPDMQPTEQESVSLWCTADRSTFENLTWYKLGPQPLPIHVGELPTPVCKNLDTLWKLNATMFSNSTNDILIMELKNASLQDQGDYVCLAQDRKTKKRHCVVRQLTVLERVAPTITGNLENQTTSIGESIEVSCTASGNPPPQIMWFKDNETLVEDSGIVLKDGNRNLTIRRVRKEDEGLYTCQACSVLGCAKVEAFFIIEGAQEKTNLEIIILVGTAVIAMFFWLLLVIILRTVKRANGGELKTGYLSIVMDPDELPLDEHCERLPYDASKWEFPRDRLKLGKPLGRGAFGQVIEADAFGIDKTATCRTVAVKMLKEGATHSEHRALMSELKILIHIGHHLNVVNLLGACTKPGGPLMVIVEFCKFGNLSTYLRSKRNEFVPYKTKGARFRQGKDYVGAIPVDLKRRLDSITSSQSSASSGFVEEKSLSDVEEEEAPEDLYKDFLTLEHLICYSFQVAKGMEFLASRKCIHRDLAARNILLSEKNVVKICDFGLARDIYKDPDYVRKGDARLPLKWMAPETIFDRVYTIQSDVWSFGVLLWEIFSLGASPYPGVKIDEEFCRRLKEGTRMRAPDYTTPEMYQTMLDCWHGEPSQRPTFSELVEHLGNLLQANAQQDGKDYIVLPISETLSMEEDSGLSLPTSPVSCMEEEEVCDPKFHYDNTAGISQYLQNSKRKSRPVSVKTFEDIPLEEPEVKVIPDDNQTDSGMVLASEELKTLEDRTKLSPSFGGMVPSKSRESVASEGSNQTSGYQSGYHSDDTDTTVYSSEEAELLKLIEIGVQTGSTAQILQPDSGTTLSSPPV
compound,measurement,setting,value
C[C@@H]1C(=O)NCC(=O)N[C@H](C)C(=O)Nc2cc(OCc3ccccc3)ccc2/C=C/C[C@@H]1O [Solo F–OH],MIC Tubular Like-Structures Formation,[1],1 µM
same,Disruption of endothelial tubular-like structures already formed on Matrigel,[2],not able to disrupt
same,IC50,BAEC invasion,~5 µM
same,Presence of MMP-2 in cell extracts and conditioned media of BAEC,MMP-2 [3],reduced
same,MMP-2 activity in HT1080 cells,MMP-2 [4],decreased
same,MMP-9 activity in HT1080 cells,MMP-9,decreased
same,MMP-2 degradation bands with compound in incubation buffer,MMP-2 [5],unaffected
same,"Score + / Total (mild response), %",[6]; compound 5 µM,36.8%
same,"Score + / Total (mild response), embryos",[6]; compound 5 µM,7/19
same,"Score ++ / Total (strong response), %",[6]; compound 5 µM,15.8%
same,"Score ++ / Total (strong response), embryos",[6]; compound 5 µM,3/19
same,"Score – / Total (no response to FGF-2), %",[6]; compound 5 µM,47.4%
same,"Score – / Total (no response to FGF-2), embryos",[6]; compound 5 µM,9/19
same,"Score + / Total (mild response), %",[6]; compound 10 µM,39.1%
same,"Score + / Total (mild response), embryos",[6]; compound 10 µM,9/23
same,"Score ++ / Total (strong response), %",[6]; compound 10 µM,4.3%
same,"Score ++ / Total (strong response), embryos",[6]; compound 10 µM,1/23
same,"Score – / Total (no response to FGF-2), %",[6]; compound 10 µM,56.5%
same,"Score – / Total (no response to FGF-2), embryos",[6]; compound 10 µM,13/23
same,Phosphorylation of Akt in the presence of serum,Akt,substantially reduced
same,Phosphorylation of ERK1/2 in the presence of serum,ERK1/2,substantially reduced
same,IC50,[7],18.1 ± 2.2 µM
same,Positive/Total,CAM of chicken embryos; 0.1 nmol/CAM,1/7
same,Positive/Total,CAM of chicken embryos; 0.5 nmol/CAM,2/7
same,Positive/Total,CAM of chicken embryos; 1 nmol/CAM,6/9
same,Positive/Total,CAM of chicken embryos; 5 nmol/CAM,9/12
same,Positive/Total,CAM of chicken embryos; 10 nmol/CAM,10/10
same,Dose reaching 50% of inhibition of CAM neovascularization,CAM of chicken embryos; CAM assay,lower than 1 nmol/CAM
same,Remaining VEGFR2 kinase activity relative to vehicle control (DMSO),human recombinant VEGFR2,84.5 ± 3.3%
C[C@H]1NC(=O)CNC(=O)CC/C=C/Cc2ccccc2NC1=O [Solo-1],MIC Tubular Like-Structures Formation,[1],>50 µM
same,IC50,[7],> 100 µM
C[C@H]1NC(=O)CNC(=O)CC/C=C/Cc2ccc(OCc3ccccc3)cc2NC1=O [Solo-2],MIC Tubular Like-Structures Formation,[1],>50 µM
same,IC50,[7],43.8 ± 1.2 µM
C[C@H]1NC(=O)CNC(=O)CCC/C=C/c2ccc(OCc3ccccc3)cc2NC1=O [Solo-4],MIC Tubular Like-Structures Formation,[1],50 µM
same,IC50,[7],69.6 ± 12.5 µM
C[C@H]1NC(=O)CNC(=O)CC/C=C/Cc2ccc(O)cc2NC1=O [Solo-5],MIC Tubular Like-Structures Formation,[1],>50 µM
same,IC50,[7],> 100 µM
C[C@H]1NC(=O)CNC(=O)CC/C=C/C(O)c2ccccc2NC1=O (stereo partly drawn) [Solo-6],MIC Tubular Like-Structures Formation,[1],>50 µM
same,IC50,[7],> 100 µM

# Reference: article PMC6520732, “Exploring the Antiangiogenic Potential of Solomonamide A Bioactive Precursors: In Vitro and In Vivo Evidences of the Inhibitory Activity of Solo F-OH During Angiogenesis” (Marine Drugs, 2019)
